Measured values published in patent publication US10988524B2, “Modified relaxin B chain peptides and their therapeutic use” (priority 2018, dated 2021).
≈ marks a conversion by molar mass, not a printed value. Read-outs that look alike come from different tables or passages of the source. Non-standard residues stand in square brackets, D forms with d. Residues, ends and D or L forms follow the SMILES beside them. Nle = CCCC[C@H](N)C(=O)O; Aib = CC(C)(N)C(=O)O

Key:
[1] = Stability in human plasma; format: in vitro ADME; conditions: 37° C.; for Human Plasma stability % remaining, T = 0: 5 μM; for remaining at 1 h, 5 μM / remaining at 4 h, 5 μM: human plasma (sodium or lithium heparin)
Experimental: (§1) Prior to the testing of stability in plasma of a peptide batch, its purity (HPLC-UV) was determined.
(§2) Rat and Human plasma: anti-coagulant sodium or lithium heparin.
(§3) 100 μM solution of study compound in 50 mM Phosphate buffer pH 7.4.
(§4) 950 μL plasma is pre-incubated for 5 min at 37° C. 50 μL of compound stock solution is added. Final compound concentration=5 μM. Vortex and transfer 1504, plasma into an Eppendorf for each time point. The time points 0-1 and −4 h are carried out in duplicate for each species.
(§5) After incubation extract 1504, plasma with 6004, Acetonitrile containing with 1% TFA. Vortex and centrifuge 10 min at 14600 rpm. Dry 2004, supernatant under N2. Reconstitute sample in 200 μL of H2O/CH3CN 98/2+0.1% FA+50 ng/ml Labetalol and analyze using the analytical system used in solubility and stability studies.
(§6) For determination of the amount of the remaining peptide, the peak areas of the target compound at t0 and each time point […] were compared, resulting in “% remaining peptide”, following the equation
(§7) % remaining peptide=[(peak area peptide time)×100]/peak area peptide t0. The stability is expressed as “% remaining peptide”.

Stability in rat plasma = format: in vitro ADME; conditions: 37° C.; for Rat plasma stability % remaining, T = 0: 5 μM; for remaining at 1 h, 5 μM / remaining at 4 h, 5 μM: rat plasma (sodium or lithium heparin)
Experimental: as §1, §2, §3, §4, §5, §6, §7

[2] = Solubility testing of peptides in buffer; format: physicochemical
RXFP1 = target: T1, RXFP1 (Homo sapiens, UniProt Q9HBX9); assay: OVCAR5 cAMP assay (RXFP1 agonist activity, HTRF); conditions: for Emax: OVCAR-5, read-out: cAMP assay in OVCAR 5 cells Emax, maximal intracellular cAMP relative to H2-relaxin in the same test occasion; for EC50: cAMP assay in OVCAR 5 cells EC50 (nM), OVCAR5 cells expressing endogenous RXFP1, cAMP by HTRF, 30 min at 37° C., 1 mM IBMX
T1 sequence (Q9HBX9 1-757): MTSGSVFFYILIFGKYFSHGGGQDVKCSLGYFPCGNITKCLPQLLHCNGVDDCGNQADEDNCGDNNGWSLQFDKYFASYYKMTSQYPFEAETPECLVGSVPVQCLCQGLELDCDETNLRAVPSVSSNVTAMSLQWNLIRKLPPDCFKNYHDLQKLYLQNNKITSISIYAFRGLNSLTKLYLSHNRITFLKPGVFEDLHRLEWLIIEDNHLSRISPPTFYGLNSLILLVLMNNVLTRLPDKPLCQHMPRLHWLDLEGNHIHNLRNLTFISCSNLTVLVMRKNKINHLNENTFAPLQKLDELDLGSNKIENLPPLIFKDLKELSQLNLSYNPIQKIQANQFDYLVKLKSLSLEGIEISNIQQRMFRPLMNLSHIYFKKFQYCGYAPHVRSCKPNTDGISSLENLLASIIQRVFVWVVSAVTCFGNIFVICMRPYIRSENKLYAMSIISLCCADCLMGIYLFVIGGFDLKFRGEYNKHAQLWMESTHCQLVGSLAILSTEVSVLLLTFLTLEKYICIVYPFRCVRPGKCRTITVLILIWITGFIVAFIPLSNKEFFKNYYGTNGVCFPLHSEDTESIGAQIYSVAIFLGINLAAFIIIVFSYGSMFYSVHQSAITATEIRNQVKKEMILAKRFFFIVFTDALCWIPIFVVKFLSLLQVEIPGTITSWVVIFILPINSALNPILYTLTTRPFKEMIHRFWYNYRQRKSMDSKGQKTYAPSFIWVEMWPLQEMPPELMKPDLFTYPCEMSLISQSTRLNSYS

[3] = acetate buffer, pH 4.5, read-out: Solubility Acetate buffer pH 4.5
[4] = phosphate buffer, pH 7.4, read-out: Solubility phosphate buffer pH 7.4
[5] = Phosphate buffer 50 mM pH 7.4, target solubility 2.0 mg/ml, ~19 h, read-out: Solubility phosphate buffer pH 7.4

| Human Plasma stability % remaining, T = 0 [1] | remaining at 1 h, 5 μM [1] | remaining at 4 h, 5 μM [1] | Rat plasma stability % remaining, T = 0 (Stability in rat plasma) | remaining at 1 h, 5 μM (Stability in rat plasma) | remaining at 4 h, 5 μM (Stability in rat plasma) | solubility [2, 3] | solubility [2, 4] | Emax (RXFP1) | EC50 (RXFP1) | solubility ([2]; Acetate buffer 50 mM pH 4.5, target solubility 3.0 mg/ml, ~19 h, read-out: Solubility Acetate buffer pH 4.5) | solubility ([2]; Phosphate buffer 50 mM pH 7.4, target solubility 3.0 mg/ml, ~19 h, read-out: Solubility phosphate buffer pH 7.4) | solubility [2, 5] | Compound |
| --- | --- | --- | --- | --- | --- | --- | --- | --- | --- | --- | --- | --- | --- |
| 100% | 93% | 74% | 100% | 86% | 60% | 4000 µg/mL (≈ 1400 µM) | 4000 µg/mL (≈ 1400 µM) | 98% | ≤ 10 nM |  |  |  | CCCC[C@H](NC(=O)CNC(=O)[C@H](CCC(=O)O)NC(=O)C(C)(C)NC(=O)C(C)(C)NC(=O)[C@@H](NC(=O)[C@H](CCCCNC(C)=O)NC(=O)[C@H](C)NC(=O)[C@H](CCCNC(=N)N)NC(=O)[C@@H](NC(=O)[C@H](CCCCN)NC(=O)[C@H](CCC(=O)O)NC(=O)[C@H](CCCNC(=N)N)NC(=O)CNC(=O)[C@H](CCC(=O)O)NC(=O)[C@H](CC(C)C)NC(C)=O)C(C)C)[C@@H](C)CC)C(=O)N[C@@H](CO)C(=O)N[C@H](C(=O)N[C@@H](Cc1c[nH]c2ccccc12)C(=O)N[C@@H](CO)C(=O)NC(C)(C)C(=O)N[C@@H](CCCNC(=N)N)C(=O)N[C@@H](CCCCN)C(=O)N[C@@H](CCCCNC(C)=O)C(N)=O)[C@@H](C)O [compound 5] (Ac-LEGREKVRAK(Ac)I[Aib][Aib]EG[Nle]STWS[Aib]RKK(Ac)-NH2) |
| 100% | 85% | 64% | 100% | 78% | 55% |  |  | 97% |  | ≥ 3300 µg/mL | ≥ 2900 µg/mL |  | CCCC[C@H](NC(=O)CNC(=O)[C@H](CCC(=O)O)NC(=O)C(C)(C)NC(=O)C(C)(C)NC(=O)[C@@H](NC(=O)[C@H](CCC(N)=O)NC(=O)[C@H](C)NC(=O)[C@H](CCCNC(=N)N)NC(=O)[C@@H](NC(=O)[C@H](CCCCN)NC(=O)[C@H](CCC(=O)O)NC(=O)[C@H](CCCNC(=N)N)NC(=O)CNC(=O)[C@H](CCC(=O)O)NC(=O)[C@H](CC(C)C)NC(C)=O)C(C)C)[C@@H](C)CC)C(=O)N[C@@H](CO)C(=O)N[C@H](C(=O)N[C@@H](Cc1c[nH]c2ccccc12)C(=O)N[C@@H](CO)C(=O)NC(C)(C)C(=O)N[C@@H](CCCNC(=N)N)C(=O)N[C@@H](CCCCN)C(=O)N[C@@H](CCCCN)C(N)=O)[C@@H](C)O [compound 3] (Ac-LEGREKVRAQI[Aib][Aib]EG[Nle]STWS[Aib]RKK-NH2) |
| 100% | 95% | 93% | 100% | 91% | 101% | ≥ 6100 µg/mL | ≥ 5800 µg/mL | 99% |  |  |  |  | CC[C@H](C)[C@H](NC(=O)[C@H](CCC(N)=O)NC(=O)[C@H](C)NC(=O)[C@H](CCCNC(=N)N)NC(=O)[C@@H](NC(=O)[C@H](CCCCN)NC(=O)[C@H](CCC(=O)O)NC(=O)[C@H](CCCNC(=N)N)NC(=O)CNC(=O)[C@H](CCC(=O)O)NC(=O)[C@H](CC(C)C)NC(C)=O)C(C)C)C(=O)NC(C)(C)C(=O)NC(C)(C)C(=O)N[C@@H](CCC(=O)O)C(=O)NCC(=O)N[C@@H](CCSC)C(=O)N[C@@H](CO)C(=O)N[C@H](C(=O)N[C@@H](Cc1c[nH]c2ccccc12)C(=O)N[C@@H](CO)C(=O)NC(C)(C)C(=O)N[C@@H](CCCNC(=N)N)C(=O)N[C@@H](CCCCN)C(=O)N[C@@H](CCCCN)C(N)=O)[C@@H](C)O [compound 4] (Ac-LEGREKVRAQI[Aib][Aib]EGMSTWS[Aib]RKK-NH2) |
|  |  |  |  |  |  |  |  | 94% | ≤ 10 nM |  |  | ≥ 2300 µg/mL | CCCC[C@H](NC(=O)CNC(=O)[C@H](CCC(=O)O)NC(=O)C(C)(C)NC(=O)C(C)(C)NC(=O)[C@@H](NC(=O)[C@H](CCC(N)=O)NC(=O)[C@H](C)NC(=O)[C@H](CCCNC(=N)N)NC(=O)[C@@H](NC(=O)[C@H](CCCCN)NC(=O)[C@H](CCC(=O)O)NC(=O)[C@H](CCCNC(=N)N)NC(=O)CNC(=O)[C@H](CCC(=O)O)NC(=O)[C@H](CC(C)C)NC(C)=O)C(C)C)[C@@H](C)CC)C(=O)N[C@@H](CO)C(=O)N[C@@H](CCC(N)=O)C(=O)N[C@@H](Cc1c[nH]c2ccccc12)C(=O)N[C@@H](CO)C(=O)NC(C)(C)C(=O)N[C@@H](CCCNC(=N)N)C(=O)N[C@@H](CCCNC(=N)N)C(=O)N[C@@H](CCCNC(=N)N)C(N)=O [compound 52] (Ac-LEGREKVRAQI[Aib][Aib]EG[Nle]SQWS[Aib]RRR-NH2) |
|  |  |  |  |  |  |  |  | 93% |  |  |  | ≥ 2000 µg/mL | CC[C@H](C)[C@H](NC(=O)[C@H](CCC(N)=O)NC(=O)[C@H](C)NC(=O)[C@H](CCCNC(=N)N)NC(=O)[C@@H](NC(=O)[C@H](CCCCN)NC(=O)[C@H](CCC(=O)O)NC(=O)[C@H](CCCNC(=N)N)NC(=O)CNC(=O)[C@H](CCC(=O)O)NC(=O)[C@H](CC(C)C)NC(C)=O)C(C)C)C(=O)NC(C)(C)C(=O)NC(C)(C)C(=O)N[C@@H](CCC(=O)O)C(=O)NCC(=O)N[C@@H](CCC(N)=O)C(=O)N[C@@H](CO)C(=O)N[C@H](C(=O)N[C@@H](Cc1ccc(O)cc1)C(=O)N[C@@H](CO)C(=O)NC(C)(C)C(=O)N[C@@H](CCCNC(=N)N)C(=O)N[C@@H](CCCCN)C(=O)N[C@@H](CCCCN)C(N)=O)[C@@H](C)O [compound 58] (Ac-LEGREKVRAQI[Aib][Aib]EGQSTYS[Aib]RKK-NH2) |
